Laboratory results from patent EP1211260A1, “Peptides from Ag85 of mycobacterium and uses thereof” (priority 2000, dated 2002).
pIC50: −log10 of the molar value. Where a SMILES comes first, the peptide text is derived from it.

What follows are compounds tested against Recombinant HLA-A*201 (Homo sapiens, UniProt P04439, D140Y/D185E/D98H/E176V/E277Q/G131W/G231S/I119V/I121R/I166T/I218V/L300P/L318F/N151K/N90K/P208A/P217A/Q86G/Q94H/R138H/R169H/T345S) (assay: biochemical). Conditions: not given.
Format: binding

`CC[C@H](C)[C@H](NC(=O)[C@H](CCSC)NC(=O)[C@H](C)NC(=O)[C@H](CO)NC(=O)[C@H](CO)NC(=O)CNC(=O)[C@H](C)NC(=O)[C@H](CCSC)NC(=O)[C@@H](N)CO)C(=O)O` [126-134] (H-SMAGSSAMI-OH) and `CC(C)C[C@H](NC(=O)[C@H](CCCNC(=N)N)NC(=O)[C@@H](NC(=O)[C@H](CC(N)=O)NC(=O)[C@H](CC(N)=O)NC(=O)[C@H](C)NC(=O)[C@@H](NC(=O)[C@H](CC(C)C)NC(=O)[C@@H](N)CCCCN)C(C)C)[C@@H](C)O)C(=O)O` [199-207] (H-KLVANNTRL-OH) are within 0.2 log units of each other in pIC50: 5.77 for the first, 5.85 for the second.

Same assay, conditions: 20°C, 48 h; standard peptide HBV core 47-56 (52->C); read-out: HLA-A2 Binding Affinity(IC50; µM)

`CC(C)C[C@H](NC(=O)[C@H](Cc1ccc(O)cc1)NC(=O)[C@H](CCC(=O)O)NC(=O)[C@@H](NC(=O)[C@@H]1CCCN1C(=O)[C@H](CC(C)C)NC(=O)CN)C(C)C)C(=O)N[C@@H](CCC(N)=O)C(=O)N[C@H](C(=O)O)C(C)C` [5-13] (H-GLPVEYLQV-OH) and `CC(C)C[C@H](NC(=O)[C@H](Cc1c[nH]c2ccccc12)NC(=O)[C@H](CCC(N)=O)NC(=O)[C@@H]1CCCN1C(=O)[C@H](CC(C)C)NC(=O)[C@H](CCC(=O)O)NC(=O)[C@H](CO)NC(=O)[C@@H](NC(=O)[C@@H](N)CC(C)C)[C@@H](C)O)C(=O)O` [101-109] (H-LTSELPQWL-OH) are within 1.5-fold of each other in IC50: 7 µM for the first, 6 µM for the second.

Going from `CC(C)C[C@H](NC(=O)CNC(=O)[C@H](CC(=O)O)NC(=O)[C@H](CC(C)C)NC(=O)[C@H](CC(C)C)NC(=O)[C@@H](N)Cc1ccc(O)cc1)C(=O)N[C@@H](CCCNC(=N)N)C(=O)N[C@@H](C)C(=O)O` [37-44] (H-YLLDGLRA-OH) to `CC[C@H](C)[C@H](NC(=O)[C@@H](N)Cc1ccccc1)C(=O)N[C@@H](Cc1ccc(O)cc1)C(=O)N[C@@H](C)C(=O)NCC(=O)N[C@@H](CO)C(=O)N[C@@H](CC(C)C)C(=O)N[C@@H](CO)C(=O)N[C@@H](C)C(=O)N[C@@H](CC(C)C)C(=O)O` [143-152, FIYAGSLSAL] (H-FIYAGSLSAL-OH), the IC50 falls from 1.6 µM to 0.01 µM (160-fold). The second is the more potent here.

First: CC[C@H](C)[C@H](NC(=O)[C@H](CO)NC(=O)[C@H](CC(C)C)NC(=O)CN)C(=O)N[C@H](C(=O)N[C@@H](CCSC)C(=O)N1CCC[C@H]1C(=O)N[C@H](C(=O)O)C(C)C)C(C)C [65-72] (H-GLSIVMPV-OH)
Second: CC[C@H](C)[C@H](NC(=O)[C@H](CC(C)C)NC(=O)[C@H](CO)NC(=O)[C@@H]1CCCN1C(=O)CNC(=O)[C@H](CCSC)NC(=O)CN)C(=O)NCC(=O)N[C@@H](CC(C)C)C(=O)O [158-166] (H-GMGPSLIGL-OH)
The IC50 of the first is 4.7-fold lower: 0.3 µM for the first, 1.4 µM for the second.

Going from `CC(C)C[C@H](NC(=O)[C@H](Cc1c[nH]c2ccccc12)NC(=O)[C@H](CCC(N)=O)NC(=O)[C@@H]1CCCN1C(=O)[C@H](CC(C)C)NC(=O)[C@H](CCC(=O)O)NC(=O)[C@H](CO)NC(=O)[C@@H](NC(=O)[C@H](CC(C)C)NC(=O)[C@@H](N)Cc1ccccc1)[C@@H](C)O)C(=O)O` [100-109] (H-FLTSELPQWL-OH) to `CC(C)C[C@H](NC(=O)[C@H](CC(N)=O)NC(=O)[C@H](CO)NC(=O)[C@H](CO)NC(=O)[C@H](CCCNC(=N)N)NC(=O)[C@@H](NC(=O)[C@H](Cc1ccccc1)NC(=O)[C@H](CC(N)=O)NC(=O)[C@H](CCC(=O)O)NC(=O)[C@H](CC(C)C)NC(=O)[C@@H](N)Cc1ccccc1)C(C)C)C(=O)O` [228-238] (H-FLENFVRSSNL-OH), the IC50 rises from 0.7 µM to 1.2 µM (1.7-fold). The first is the more potent here.

`CC[C@H](C)[C@H](NC(=O)[C@H](CCSC)NC(=O)[C@H](C)NC(=O)[C@H](CO)NC(=O)[C@H](CO)NC(=O)CNC(=O)[C@H](C)NC(=O)[C@H](CCSC)NC(=O)[C@@H](N)CO)C(=O)N[C@@H](CC(C)C)C(=O)O` [126-135] (H-SMAGSSAMIL-OH) and `CC[C@H](C)[C@H](NC(=O)[C@@H](N)Cc1ccccc1)C(=O)N[C@@H](Cc1ccc(O)cc1)C(=O)N[C@@H](C)C(=O)NCC(=O)N[C@@H](CO)C(=O)N[C@@H](CC(C)C)C(=O)N[C@@H](CO)C(=O)N[C@@H](C)C(=O)O` [143-151] (H-FIYAGSLSA-OH) are within 1.5-fold of each other in IC50: 0.5 µM for the first, 0.4 µM for the second.

Going from `CC(C)C[C@H](NC(=O)[C@H](CCCNC(=N)N)NC(=O)[C@@H](NC(=O)[C@H](CC(N)=O)NC(=O)[C@H](CC(N)=O)NC(=O)[C@H](C)NC(=O)[C@@H](NC(=O)[C@H](CC(C)C)NC(=O)[C@@H](N)CCCCN)C(C)C)[C@@H](C)O)C(=O)N[C@@H](Cc1c[nH]c2ccccc12)C(=O)N[C@H](C(=O)O)C(C)C` [199-209] (H-KLVANNTRLWV-OH) to `CC(C)C[C@H](NC(=O)[C@@H](N)CCCNC(=N)N)C(=O)N[C@@H](Cc1c[nH]c2ccccc12)C(=O)N[C@H](C(=O)N[C@@H](Cc1ccc(O)cc1)C(=O)N[C@@H](CS)C(=O)NCC(=O)N[C@@H](CC(N)=O)C(=O)NCC(=O)N[C@H](C(=O)O)[C@@H](C)O)C(C)C` [206-215] (H-RLWVYCGNGT-OH), the IC50 rises from 0.6 µM to 2 µM (3.3-fold). The first is the more potent here.
